From patent US20210032257A1, “(E)-1-(4-(DIMETHYLAMINO)BUT-2-ENOYL)PYRROLIDIN-3-YL 4-((3-ISOPROPYL-5-METHYLPYRAZOLO[1,5-A]PYRIMIDIN-7-YL)AMINO)PIPERIDINE-1-CARBOXYLATE FOR INHIBITING CDK7” (Eli Lilly and Company, priority 2017, published 2021)

Key:
Assay in all cases: Biomarker study proliferation (CellTiter-Glo)
Type in all cases: cell-based
[1] = system: OV90
Procedure: (§1) Cancer cell lines are profiled to evaluate the anti-proliferative activity of a test compound in-vitro. Mutation, copy number and gene expression information of ARID1A, KMT2C, KMT2D and/or RB1 genes across cancer cell lines is obtained from COSMIC database (cancer.sanger.ac.uk) and cBioportal (http://www.cbioportal.org/). Cells are cultured in growth medium and plated into a 96-well plate in 100 μL/well growth medium at 5000 cells/well then incubated at 37° C., 5% CO2 overnight. Cells are cultured using supplier recommended media and conditions well known in the art, for example with RPMI 1640 with or without HEPES & L-Glutamine (Thermo SH30255.01) and 1 mM Sodium Pyruvate, and 10% FBS(Gibco cat #10082). The 1000× intermediate dilution plate is prepared by making a 10 mM working solution of a test sample in DMSO and performing 1:3 dilutions in DMSO for 10 points. The 10× dosing plate is prepared by adding 2 μL from the 1000× intermediate dilution plate to 198 μL of OPTIMEM®+10% FBS and mixing well. The cell plate is then treated by adding 11 μL from the 10× dosing plate into the 100 μL/well cell plate for a 1× final concentration. Staurosporine is used as a maximum growth inhibition control at a final concentration of 5 μM. The cell plate is incubated for 7 days at 37° C., 5% CO2. Seven days after treatment, Cell Titer-Glo® (Promega cat #G7571) assay buffer and substrate are removed from −20° C. and allowed to equilibrate to RT. Assay buffer is added to the substrate and swirled gently to mix. The CELL TITER-GLO® reagent (100 μL/well) is added to the cell plate and incubated at RT for 15 minutes. After 15 minutes, luminescence is read using a plate reader. Data is analyzed in Excel and graphed in GraphPad Prism. Statistical analysis and p value is calculated using Mann-Whitney nonparameteric t tests using GraphPad Prism.
(§2) Anti-proliferative effects of a test compound are categorized as insensitive (IC50≥1 μM), cytostatic (IC50<1 μM and % inhibition <70%) or cytotoxic (IC50<1 μM and % inhibition ≥70%).

[2] = system: NCIH2122
Procedure: as §1, §2

[3] = system: NCIH1703
Procedure: as §1, §2

[4] = system: SNU16
Procedure: as §1, §2

[5] = system: HT
Procedure: as §1, §2

[6] = system: KYSE70
Procedure: as §1, §2

[7] = system: NCIH520
Procedure: as §1, §2

[8] = system: MX1
Procedure: as §1, §2

[9] = system: SNU398
Procedure: as §1, §2

[10] = system: NCIH1155
Procedure: as §1, §2

[11] = system: SW837
Procedure: as §1, §2

[12] = system: SNU1079
Procedure: as §1, §2

[13] = system: NCIH82
Procedure: as §1, §2

[14] = system: SiHa
Procedure: as §1, §2

[15] = system: LS411N
Procedure: as §1, §2

[16] = system: HUH7
Procedure: as §1, §2

[17] = system: NCIH1048
Procedure: as §1, §2

[18] = system: NCIH522
Procedure: as §1, §2

[19] = Homo sapiens, 168 h, read-out: Anti-proliferation effect IC50

What does the source list for `Cc1cc(NC2CCN(C(=O)O[C@H]3CCN(C(=O)/C=C/CN(C)C)C3)CC2)n2ncc(C(C)C)c2n1` [Example 1, [(3S)-1-[(E)-4-(dimethylamino)but-2-enoyl]pyrrolidin-3-yl] 4-[(3-isopropyl-5-methyl-pyrazolo[1,5-a]pyrimidin-7-yl)amino]piperidine-1-carboxylate]?
IC50 ([1]; Homo sapiens, OV-90, 168 h, read-out: Anti-proliferation effect IC50): 34 nM; Anti-proliferation effect % Inh. ([1]; OV90, OVARY, 7 days): 61%; Anti-proliferation effect Outcome ([1]; OV90, OVARY, 7 days): Cytostatic (cytostatic (IC50<1 μM and % inhibition <70%)); IC50 ([2]; Homo sapiens, NCI-H2122, 168 h, read-out: Anti-proliferation effect IC50): 78 nM; Anti-proliferation effect % Inh. ([2]; NCIH2122, LUNG, 7 days): 85%; Anti-proliferation effect Outcome ([2]; NCIH2122, LUNG, 7 days): Cytotoxic (cytotoxic (IC50<1 μM and % inhibition ≥70%)); IC50 ([3]; Homo sapiens, NCI-H1703, 168 h, read-out: Anti-proliferation effect IC50): 40 nM; Anti-proliferation effect % Inh. ([3]; NCIH1703, LUNG, 7 days): 92%; Anti-proliferation effect Outcome ([3]; NCIH1703, LUNG, 7 days): Cytotoxic (cytotoxic (IC50<1 μM and % inhibition ≥70%)); IC50 ([4]; Homo sapiens, SNU-16, 168 h, read-out: Anti-proliferation effect IC50): 17 nM; Anti-proliferation effect % Inh. ([4]; SNU16, STOMACH, 7 days): 84%; Anti-proliferation effect Outcome ([4]; SNU16, STOMACH, 7 days): Cytotoxic (cytotoxic (IC50<1 μM and % inhibition ≥70%)); Anti-proliferation effect % Inh. ([5]; BLOOD, 7 days): 64%; Anti-proliferation effect Outcome ([5]; BLOOD, 7 days): Cytostatic (cytostatic (IC50<1 μM and % inhibition <70%)); IC50 [5, 19]: 131 nM; IC50 ([6]; Homo sapiens, KYSE-70, 168 h, read-out: Anti-proliferation effect IC50): 126 nM; Anti-proliferation effect % Inh. ([6]; KYSE70, OESOPHAGUS, 7 days): 70%; Anti-proliferation effect Outcome ([6]; KYSE70, OESOPHAGUS, 7 days): Cytotoxic (cytotoxic (IC50<1 μM and % inhibition ≥70%)); IC50 ([7]; Homo sapiens, NCI-H520, 168 h, read-out: Anti-proliferation effect IC50): 82 nM; Anti-proliferation effect % Inh. ([7]; NCIH520, LUNG, 7 days): 77%; Anti-proliferation effect Outcome ([7]; NCIH520, LUNG, 7 days): Cytotoxic (cytotoxic (IC50<1 μM and % inhibition ≥70%)); IC50 ([8]; Homo sapiens, MX1, 168 h, read-out: Anti-proliferation effect IC50): 45 nM; Anti-proliferation effect % Inh. ([8]; MX1, BREAST, 7 days): 72%; Anti-proliferation effect Outcome ([8]; MX1, BREAST, 7 days): Cytotoxic (cytotoxic (IC50<1 μM and % inhibition ≥70%)); IC50 ([9]; Homo sapiens, SNU-398, 168 h, read-out: Anti-proliferation effect IC50): 21 nM; Anti-proliferation effect % Inh. ([9]; SNU398, LIVER, 7 days): 85%; Anti-proliferation effect Outcome ([9]; SNU398, LIVER, 7 days): Cytotoxic (cytotoxic (IC50<1 μM and % inhibition ≥70%)); IC50 ([10]; Homo sapiens, NCI-H1155, 168 h, read-out: Anti-proliferation effect IC50): 43 nM; Anti-proliferation effect % Inh. ([10]; NCIH1155, LUNG, 7 days): 51%; Anti-proliferation effect Outcome ([10]; NCIH1155, LUNG, 7 days): Cytostatic (cytostatic (IC50<1 μM and % inhibition <70%)); IC50 ([11]; Homo sapiens, SW837, 168 h, read-out: Anti-proliferation effect IC50): 68 nM; Anti-proliferation effect % Inh. ([11]; SW837, INTESTINE, 7 days): 55%; Anti-proliferation effect Outcome ([11]; SW837, INTESTINE, 7 days): Cytostatic (cytostatic (IC50<1 μM and % inhibition <70%)); IC50 ([12]; 168 h, read-out: Anti-proliferation effect IC50): 38 nM; Anti-proliferation effect % Inh. ([12]; SNU1079, BILIARY, 7 days): 89%; Anti-proliferation effect Outcome ([12]; SNU1079, BILIARY, 7 days): Cytotoxic (cytotoxic (IC50<1 μM and % inhibition ≥70%)); IC50 ([13]; Homo sapiens, NCI-H82, 168 h, read-out: Anti-proliferation effect IC50): 699 nM; Anti-proliferation effect % Inh. ([13]; NCIH82, LUNG, 7 days): 22%; Anti-proliferation effect Outcome ([13]; NCIH82, LUNG, 7 days): Cytostatic (cytostatic (IC50<1 μM and % inhibition <70%)); Anti-proliferation effect % Inh. ([14]; CERVIX, 7 days): 58%; Anti-proliferation effect Outcome ([14]; ENDOMETRIUM, 7 days): Cytostatic (cytostatic (IC50<1 μM and % inhibition <70%)); IC50 [14, 19]: 105 nM; IC50 ([15]; Homo sapiens, LS-411N, 168 h, read-out: Anti-proliferation effect IC50): 1000 nM; Anti-proliferation effect % Inh. ([15]; LS411N, INTESTINE, 7 days): 45%; Anti-proliferation effect Outcome ([15]; LS411N, INTESTINE, 7 days): Insensitive (insensitive (IC50≥1 μM)); Anti-proliferation effect % Inh. ([16]; HUH7, LIVER, 7 days): 64%; Anti-proliferation effect Outcome ([16]; HUH7, LIVER, 7 days): Cytostatic (cytostatic (IC50<1 μM and % inhibition <70%)); IC50 ([16]; Homo sapiens, Huh-7, 168 h, read-out: Anti-proliferation effect IC50): 175 nM; IC50 ([17]; Homo sapiens, NCI-H1048, 168 h, read-out: Anti-proliferation effect IC50): 4 nM; Anti-proliferation effect % Inh. ([17]; NCIH1048, LUNG, 7 days): 95%; Anti-proliferation effect Outcome ([17]; NCIH1048, LUNG, 7 days): Cytotoxic (cytotoxic (IC50<1 μM and % inhibition ≥70%)); IC50 ([18]; Homo sapiens, NCI-H522, 168 h, read-out: Anti-proliferation effect IC50): 107 nM; Anti-proliferation effect % Inh. ([18]; NCIH522, LUNG, 7 days): 50%; Anti-proliferation effect Outcome ([18]; NCIH522, LUNG, 7 days): Cytostatic (cytostatic (IC50<1 μM and % inhibition <70%))
